# Measurements reported in patent US20020166149A1, “Sustained totipotent regenerable tissue culture of Arundo donax (Giant Reed) and totipotent tissue and plants produced therefrom” (priority 2001, published 2002).
# Columns and labels:
# A. donax explants = experiment: Phosphinothricin selection of explants on solid selective medium; type: cell-based, Arundo donax L.; conditions: 10 mg/l
# Description: Cross-sectional segment of immature A. donax inflorescence were prepared and cultivated as described in Example 2. The totipotent tissue was cocultivated with Agrobacterium tumefaciens carrying plasmid pMSF3022, which carried the bar gene for positive selection in plant cells. The gene confers resistance to the antibiotic/herbicide phosphinothricin.
# Cocultivation was carried out in 6 ml. of liquid primary culture medium for four days in the dark at room temperature. Explants were then rinsed with liquid medium and placed on solid selective and non-selective control medium containing the antibiotic/herbicide phosphinothricine at 10 mg/l. All medium contained tidarcillin at 400 mg/l to eliminate residual A. tumefaciens. Controls include explants incubated without A. tumefaciens. […] This can be contrasted with control explants (which were not contacted with A. tumefaciens) that were killed by 10 mg/l of phosphinothricin (FIG. 3A). Also shown are control explants that have developed callus in the absence of phosphinothricin (FIG. 3B), and cocultivated explants that have developed callus in the absence of phosphinothricin (FIG. 3D).
# A. donax plants (roots) = experiment: Trichloroethene challenge of cloned plants in phytoreactor; type: in vivo, Arundo donax L.; conditions: 0.25 mM in hydroponic solution; after recovery period of 3 to 4 weeks
# Description: Sustained titopotent cultures of A donax were grown as described in Example 2, and cloned plants derived from the titopotent tissues were established in a standard liquid hydroponic solution in plastic tubs (Shown in FIG. 4A). In one phytoreactor tub, trichloroethene (trichloroethylene) was added to a concentration of 0.25 mM. This was believed to be a high concentration of the organic material, because the allowable EPA concentration is 0.005 mg/l.
SMILES,effect on explants cocultivated with Agrobacterium tumefaciens (bar gene) (A. donax explants; cocultivated explants),effect on control explants (A. donax explants; control explants not contacted with A. tumefaciens),state of roots after challenge (A. donax plants (roots))
CP(=O)(O)CC[C@H](N)C(=O)O [phosphinothricin],development of herbicide resistant embryogenic tissue,killed,–
ClC=C(Cl)Cl [trichloroethene],–,–,fully recovered
